Experiments:
[1] = system: A431 cells; assay: cells; details: Homo sapiens, A-431, 72 h, read-out: IC50 in A431 cells
[2] = target: EGFR (ErbB1) (Homo sapiens (Human), UniProt P00533); assay: Z'-LYTE kinase inhibition assay, EGFR; type: biochemical; details: for inhibition at 0.041 µM: read-out: % inhibition against EGFR (Compound at 0.041 μM)
Outline: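 IC50 values derived from 10-point, 3-fold compound dilution series (1% DMSO final) using Z'-LYTE fluorescence readout after 60-min development. Reaction: EGFR (1.1-5.25 ng) with 2 μM peptide, 60 min at room temperature in HEPES pH 7.5 buffer containing MgCl2, MnCl2, EGTA, DTT and BRIJ-35.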

[3] = system: H1975 cells; assay: Inhibition of cancer cell growth, MTT assay, H1975; details: Homo sapiens, NCI-H1975, 72 h, read-out: IC50 in H1975 cells
[4] = target: EGFR (ErbB1) T790M L858R (Homo sapiens (Human), UniProt P00533, L858R/T790M); assay: Z'-LYTE kinase inhibition assay, EGFR L858R/T790M; type: biochemical; details: for inhibition at 0.0137 µM: read-out: % inhibition against EGFR L858R/T790M (Compound at 0.0137 μM); for IC50: read-out: IC50 against EGFR L858R/T790M
Sequence of EGFR (ErbB1) T790M L858R (P00533 25-1210 T790M/L858R): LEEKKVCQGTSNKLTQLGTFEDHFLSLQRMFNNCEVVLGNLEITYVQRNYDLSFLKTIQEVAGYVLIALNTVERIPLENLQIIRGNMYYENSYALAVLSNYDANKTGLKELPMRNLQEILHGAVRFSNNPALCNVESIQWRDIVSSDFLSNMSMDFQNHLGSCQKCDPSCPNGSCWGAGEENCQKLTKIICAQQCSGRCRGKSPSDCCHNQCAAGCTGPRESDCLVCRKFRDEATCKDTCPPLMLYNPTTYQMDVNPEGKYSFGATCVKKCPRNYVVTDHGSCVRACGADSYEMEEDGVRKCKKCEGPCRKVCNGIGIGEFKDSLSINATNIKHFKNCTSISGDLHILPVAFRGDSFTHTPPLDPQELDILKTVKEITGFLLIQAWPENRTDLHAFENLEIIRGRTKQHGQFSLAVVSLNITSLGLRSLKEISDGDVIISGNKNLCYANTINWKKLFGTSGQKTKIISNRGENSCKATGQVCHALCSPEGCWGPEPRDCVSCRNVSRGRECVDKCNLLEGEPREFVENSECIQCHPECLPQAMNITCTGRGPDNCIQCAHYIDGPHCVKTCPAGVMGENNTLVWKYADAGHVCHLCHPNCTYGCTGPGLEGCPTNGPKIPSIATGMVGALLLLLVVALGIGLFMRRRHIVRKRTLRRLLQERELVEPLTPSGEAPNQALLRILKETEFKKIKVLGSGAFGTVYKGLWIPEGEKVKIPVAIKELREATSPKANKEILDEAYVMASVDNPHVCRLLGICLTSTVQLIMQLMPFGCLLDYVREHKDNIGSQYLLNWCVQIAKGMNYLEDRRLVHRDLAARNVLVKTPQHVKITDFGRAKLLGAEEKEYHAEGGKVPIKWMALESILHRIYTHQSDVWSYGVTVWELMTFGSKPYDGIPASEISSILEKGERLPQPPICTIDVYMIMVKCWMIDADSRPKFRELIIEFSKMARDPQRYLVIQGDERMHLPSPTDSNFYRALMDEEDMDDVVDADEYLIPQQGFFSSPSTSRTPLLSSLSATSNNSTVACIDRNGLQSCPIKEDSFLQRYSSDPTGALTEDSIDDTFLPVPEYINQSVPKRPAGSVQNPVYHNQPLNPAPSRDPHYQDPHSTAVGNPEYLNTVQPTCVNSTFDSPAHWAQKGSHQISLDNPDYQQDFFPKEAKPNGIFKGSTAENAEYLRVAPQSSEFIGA
Outline: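 IC50 taken from 10-point, 3-fold serial dilutions tested in 1% DMSO. The mutant kinase and peptide were prepared in HEPES pH 6.5 buffer with BRIJ-35, MgCl2, EGTA and NaN3, then reacted with ATP for 1 h at room temperature. Development reagent was added for a further hour before the fluorescence readout.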

Sequence of EGFR (ErbB1) (P00533 25-1210): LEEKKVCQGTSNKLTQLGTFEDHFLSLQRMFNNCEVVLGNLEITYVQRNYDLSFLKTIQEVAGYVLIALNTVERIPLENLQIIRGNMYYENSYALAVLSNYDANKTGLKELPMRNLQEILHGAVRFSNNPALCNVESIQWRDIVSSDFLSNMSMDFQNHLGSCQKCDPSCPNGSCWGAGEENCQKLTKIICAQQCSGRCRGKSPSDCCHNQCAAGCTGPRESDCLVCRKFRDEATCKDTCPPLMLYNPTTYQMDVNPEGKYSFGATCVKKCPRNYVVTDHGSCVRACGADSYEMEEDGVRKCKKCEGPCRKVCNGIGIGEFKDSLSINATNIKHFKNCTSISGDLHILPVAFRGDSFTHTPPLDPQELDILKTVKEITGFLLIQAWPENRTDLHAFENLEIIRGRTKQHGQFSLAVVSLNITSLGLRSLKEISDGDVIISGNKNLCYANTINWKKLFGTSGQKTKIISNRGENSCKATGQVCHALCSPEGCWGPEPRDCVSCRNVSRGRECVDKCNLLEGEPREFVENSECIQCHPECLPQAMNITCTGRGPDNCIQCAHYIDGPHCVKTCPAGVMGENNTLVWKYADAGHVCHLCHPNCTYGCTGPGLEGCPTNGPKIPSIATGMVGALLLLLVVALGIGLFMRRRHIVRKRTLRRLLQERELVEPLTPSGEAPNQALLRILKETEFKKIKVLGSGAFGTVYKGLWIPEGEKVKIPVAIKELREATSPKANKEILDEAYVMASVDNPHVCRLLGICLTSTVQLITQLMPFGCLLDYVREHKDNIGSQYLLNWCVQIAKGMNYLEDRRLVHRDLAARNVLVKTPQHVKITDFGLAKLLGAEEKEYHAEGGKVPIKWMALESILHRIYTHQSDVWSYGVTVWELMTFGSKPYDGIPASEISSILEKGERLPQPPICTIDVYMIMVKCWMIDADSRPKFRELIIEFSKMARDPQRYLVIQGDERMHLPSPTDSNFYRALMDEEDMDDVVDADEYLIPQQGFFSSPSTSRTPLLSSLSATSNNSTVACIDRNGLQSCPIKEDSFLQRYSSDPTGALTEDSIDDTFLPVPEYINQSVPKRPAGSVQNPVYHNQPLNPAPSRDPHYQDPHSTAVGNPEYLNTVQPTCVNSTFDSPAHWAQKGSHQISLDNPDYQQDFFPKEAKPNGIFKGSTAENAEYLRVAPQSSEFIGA

| SMILES | IC50 [1] | inhibition at 0.041 µM [2] | IC50 [3] | inhibition at 0.0137 µM [4] | IC50 [4] | IC50 ([2]; read-out: IC50 against EGFR) |
| --- | --- | --- | --- | --- | --- | --- |
| C=CC(=O)Nc1cccc(-c2cccc3cnc(Nc4ccc(N5CCN(C)CC5)cc4Cl)nc23)c1 [Example C043, N-(3-(2-((2-chloro-4-(4-methylpiperazin-1-yl)phenyl)amino)quinazolin-8-yl)phenyl)acrylamide] | > 500 nM | > 50% | 100 to 500 nM | > 50% | – | – |
| C=CC(=O)Nc1cccc(-c2cccc3cnc(Nc4ccc(N5CCN(C)CC5)cc4)nc23)c1F [Example C045, N-(2-fluoro-3-(2-((4-(4-methylpiperazin-1-yl)phenyl)amino)quinazolin-8-yl)phenyl)acrylamide] | 100 to 500 nM | > 50% | < 100 nM | > 50% | < 100 nM | – |
| C=CC(=O)Nc1cncc(-c2cccc3cnc(Nc4ccc(N5CCN(C)CC5)nc4)nc23)c1 [Example C047, N-(5-(2-((6-(4-methylpiperazin-1-yl)pyridin-3-yl)amino)quinazolin-8-yl)pyridin-3-yl)acrylamide] | > 500 nM | > 50% | 100 to 500 nM | > 50% | – | – |
| C=CC(=O)Nc1cccc(-c2cccc3cnc(Nc4ccc(N5CCN(C)CC5)nc4)nc23)c1F [Example C048, N-(2-fluoro-3-(2-((6-(4-methylpiperazin-1-yl)pyridin-3-yl)amino)quinazolin-8-yl)phenyl)acrylamide] | > 500 nM | > 50% | < 100 nM | > 50% | < 100 nM | < 100 nM |
| C=CC(=O)Nc1cccc(-c2cccc3cnc(Nc4ccc(N5CCN(C(C)=O)CC5)cc4)nc23)c1F [Example C049, N-(3-(2-((4-(4-acetylpiperazin-1-yl)phenyl)amino)quinazolin-8-yl)-2-fluorophenyl)acrylamide] | > 500 nM | > 50% | 100 to 500 nM | > 50% | < 100 nM | – |
| C=CC(=O)Nc1cccc(-c2cccc3cnc(Nc4ccc(N5CCN(CC(F)F)CC5)cc4)nc23)c1 [Example C056, N-(3-(2-((4-(4-(2,2-difluoroethyl)piperazin-1-yl)phenyl)amino)quinazolin-8-yl)phenyl)acrylamide] | > 500 nM | < 50% | 100 to 500 nM | < 50% | – | – |
| C=CC(=O)Nc1cc(-c2cccc3cnc(Nc4ccc(N5CCN(C)CC5)cc4)nc23)ccn1 [Example C057, N-(4-(2-((4-(4-methylpiperazin-1-yl)phenyl)amino)quinazolin-8-yl)pyridin-2-yl)acrylamide] | 100 to 500 nM | > 50% | 100 to 500 nM | > 50% | < 100 nM | – |
| C=CC(=O)Nc1cncc(-c2cccc3cnc(Nc4ccc(N5CCN(CCF)CC5)cc4)nc23)c1 [Example C058, N-(5-(2-((4-(4-(2-fluoroethyl)piperazin-1-yl)phenyl)amino)quinazolin-8-yl)pyridin-3-yl)acrylamide] | > 500 nM | < 50% | < 100 nM | > 50% | – | – |
| CC(=O)N1CCN(c2ccc(Nc3ncc4cccc(-c5cccc(NC(=O)/C=C/CN(C)C)c5Cl)c4n3)cc2)CC1 [Example C060, (E)-N-(3-(2-((4-(4-acetylpiperazin-1-yl)phenyl)amino)quinazolin-8-yl)-2-chlorophenyl)-4-(dimethylamino)but-2-enamide] | > 500 nM | < 50% | 100 to 500 nM | > 50% | – | – |
| C=CC(=O)Nc1cccc(-c2cccc3cnc(Nc4ccc(N5CCN(CC(C)(C)O)CC5)c(F)c4)nc23)c1 [Example C143, N-(3-(2-((3-fluoro-4-(4-(2-hydroxy-2-methylpropyl)piperazin-1-yl)phenyl)amino)quinazolin-8-yl)phenyl)acrylamide] | – | < 50% | < 100 nM | > 50% | – | – |
| C=CC(=O)Nc1cccc(-c2cccc3cnc(Nc4ccc(OC5CCN(CCO)CC5)cc4F)nc23)c1 [Example C144, N-(3-(2-((2-fluoro-4-((1-(2-hydroxyethyl)piperidin-4-yl)oxy)phenyl)amino)quinazolin-8-yl)phenyl)acrylamide] | – | > 50% | < 100 nM | > 50% | – | – |
| C=CC(=O)Nc1cccc(-c2cccc3cnc(Nc4cc(F)c(N5CCN(C)CC5)c(F)c4)nc23)c1 [Example C146, N-(3-(2-((3,5-difluoro-4-(4-methylpiperazin-1-yl)phenyl)amino)quinazolin-8-yl)phenyl)acrylamide] | – | < 50% | < 100 nM | > 50% | – | – |
| C=CC(=O)Nc1cccc(-c2cccc3cnc(Nc4c(F)cc(N5CCN(C)CC5)cc4F)nc23)c1 [Example C148, N-(3-(2-((2,6-difluoro-4-(4-methylpiperazin-1-yl)phenyl)amino)quinazolin-8-yl)phenyl)acrylamide] | – | < 50% | < 100 nM | < 50% | – | – |
| C=CC(=O)Nc1cccc(-c2cccc3cnc(Nc4ccc(N5CCN(CC(C)(C)O)CC5)cc4F)nc23)c1 [Example C149, N-(3-(2-((2-fluoro-4-(4-(2-hydroxy-2-methylpropyl)piperazin-1-yl)phenyl)amino)quinazolin-8-yl)phenyl)acrylamide] | – | < 50% | < 100 nM | < 50% | – | – |
| C=CC(=O)Nc1cccc(-c2cccc3cnc(Nc4ccc(N5CCN(CC(N)=O)CC5)cc4)nc23)c1 [Example C150, N-(3-(2-((4-(4-(2-amino-2-oxoethyl)piperazin-1-yl)phenyl)amino)quinazolin-8-yl)phenyl)acrylamide] | – | < 50% | < 100 nM | < 50% | – | – |
| C=CC(=O)Nc1cccc(-c2cccc3cnc(Nc4ccc(N5CCN(CCOC)CC5)cc4F)nc23)c1 [Example C153, N-(3-(2-((2-fluoro-4-(4-(2-methoxyethyl)piperazin-1-yl)phenyl)amino)quinazolin-8-yl)phenyl)acrylamide] | – | < 50% | < 100 nM | < 50% | – | – |
| C=CC(=O)Nc1cccc(-c2cccc3cnc(Nc4ccc(N5CCN(CC(N)=O)CC5)cc4F)nc23)c1 [Example C154, N-(3-(2-((4-(4-(2-amino-2-oxoethyl)piperazin-1-yl)-2-fluorophenyl)amino)quinazolin-8-yl)phenyl)acrylamide] | – | < 50% | 100 to 500 nM | < 50% | – | – |
| C=CC(=O)Nc1cccc(-c2cccc3cnc(Nc4ccc(N5CCN(CCOC)CC5)c(F)c4)nc23)c1 [Example C155, N-(3-(2-((3-fluoro-4-(4-(2-methoxyethyl)piperazin-1-yl)phenyl)amino)quinazolin-8-yl)phenyl)acrylamide] | – | < 50% | < 100 nM | > 50% | – | – |
| C=CC(=O)Nc1cccc(-c2cccc3cnc(Nc4ccc(N5CCN(CC(N)=O)CC5)c(F)c4)nc23)c1 [Example C164, N-(3-(2-((4-(4-(2-amino-2-oxoethyl)piperazin-1-yl)-3-fluorophenyl)amino)quinazolin-8-yl)phenyl)acrylamide] | – | < 50% | 100 to 500 nM | < 50% | – | – |
